We go through 20 compounds from patent US8802711B2, “TRPV1 antagonists” (AbbVie Inc., priority 2011, dated 2014).

Usually IC50 stands for the point on the concentration scale where inhibition reaches its midpoint.

The target of experiment [1] is T1, human TRPV1 receptor (hTRPV1) (Homo sapiens (Human), UniProt Q8NER1). Briefly: Capsaicin activation assay (FLIPR intracellular Ca2+). The experiment is classed as cell-based. The conditions noted are these: Table 1; inhibition of capsaicin-induced intracellular Ca2+ increase, HEK293 cells expressing human TRPV1; read-out: hTRPV1 cap IC50. The protocol: Dulbecco's modified Eagle medium (D-MEM) (with 4.5 mg/mL glucose) and fetal bovine serum were obtained from Hyclone Laboratories, Inc. (Logan, Utah). Dulbecco's phosphate-buffered saline (D-PBS) (with 1 mg/mL glucose and 3.6 mg/l Na pyruvate, without phenol red), L-glutamine, hygromycin B, and Lipofectamine® were obtained from Life Technologies (Grand Island, N.Y.). G418 sulfate was obtained from Calbiochem-Novabiochem Corp. (San Diego, Calif.). Capsaicin (8-methyl-N-vanillyl-6-nonenamide) was obtained from Sigma-Aldrich, Co. (St. Louis, Mo.). Fluo-4 AM (N-[4-[6-[(acetyloxy)methoxy]-2,7-difluoro-3-oxo-3H-xanthen-9-yl]-2-[2-[2-[bis[2-[(acetyloxy)methoxy]-2-oxyethyl]amino]-5-methyl phenoxy]ethoxy]phenyl]-N-[2-[(acetyloxy)methoxy]-2-oxyethyl]-glycine, (acetyloxy)methyl ester) was purchased from Molecular Probes (Eugene, Oreg.). […]
The functional activity of compounds at the TRPV1 receptor was determined by measurement of intracellular Ca^2+ levels ([Ca^2+]i) using the Fluorescence Imaging Plate Reader (FLIPR)^TETRA®. All compounds were tested over a 12-point one-third-log concentration range. Compound stocks, 10 mM, were prepared in DMSO, and diluted serially across a 384-well plate using a Bravo BenchCel workstation (Agilent Technologies, Santa Clara, Calif.). A stock concentration of capsaicin (10 mM) was made in DMSO, and diluted in D-PBS to a final concentration of 200 nM (4×). On the day prior to the experiment, recombinant HEK293 cells that stably express human TRPV1 were removed from tissue culture flasks and plated in growth medium into black-walled clear-bottom 384-well Biocoat™ poly-D-lysine assay plates (BD Biosciences, Bedford, Mass.) using a Multidrop® dispenser (ThermoScientific, Waltham, Mass.). On the day of the experiment, growth medium was removed, and the no-wash FLIPR® Calcium-4 dye (λEX=470-495 nm, λEM=515-575 nm; Molecular Devices, Sunnyvale, Calif.) was added to each well using the Multidrop® dispenser. Cells were incubated for 90-120 minutes in the dark at room temperature. Test compounds were added to the cells 3 minutes prior to the addition of 200 nM capsaicin (4×), and the final assay volume was 80 μL. Fluorescence readings were made at 1 to 5 second intervals over the course of the experimental run. The peak increase in relative fluorescence units (minus baseline) was calculated, and expressed as a percentage of the 50 nM capsaicin (control) response.

Experiment [2] deals with T1, human TRPV1 receptor (hTRPV1). Briefly: Acid activation assay (pH 5.0, FLIPR intracellular Ca2+). The conditions noted are these: Table 1; 37.5 μM antagonist, percentage of the maximal pH 5.0-induced response remaining; read-out: hTRPV1 H+ (max % remain). In kind it is cell-based. As for the experimental part:
Dulbecco's modified Eagle's medium (DMEM) with 4.5 mg/mL D-glucose, fetal bovine serum, L-glutamine, and 2-morpholinoethanesulfonic acid (MES) were purchased from Sigma-Aldrich Co. (St. Louis, Mo.). Dulbecco's phosphate-buffered saline (DPBS) with Ca^2+, Mg^2+, and 1 mg/mL D-glucose (pH 7.4), Geneticin®, 0.25% trypsin-1 mM EDTA, and penicillin-streptomycin were purchased from Invitrogen Corp. (Carlsbad, Calif.). The FLIPR® Calcium 4 assay kit was purchased from Molecular Devices (Sunnyvale, Calif.).
The cDNAs for the human TRPV1 receptor (hTRPV1) were isolated by reverse transcriptase-polymerase chain reaction (RT-PCR) from human small intestine poly A+RNA supplied by Clontech (Palo Alto, Calif.) using primers designed surrounding the initiation and termination codons identical to the published sequences (Hayes et al. Pain 2000, 88, 205-215). The resulting cDNA PCR products were subcloned into pCIneo mammalian expression vector (Promega) and fully sequenced using fluorescent dye-terminator reagents (Prism, Perkin-Elmer Applied Biosystems Division) and a Perkin-Elmer Applied Biosystems Model 373 DNA sequencer or Model 310 genetic analyzer. Expression plasmids encoding the hTRPV1 cDNA were transfected individually into 1321N1 human astrocytoma cells using Lipofectamine. Forty-eight hours after transfection, the neomycin-resistant cells were selected with growth medium containing 800 μg/mL Geneticin (Gibco BRL). Surviving individual colonies were isolated and screened for TRPV1 receptor activity. Cells expressing recombinant homomeric TRPV1 receptors were maintained at 37° C. in DMEM containing 4 mM L-glutamine, 300 μg/mL G418 (Cal-biochem) and 10% fetal bovine serum under a humidified 5% CO2 atmosphere.
The functional activity of compounds at the TRPV1 receptor was determined by measurement of intracellular Ca^2+ levels ([Ca^2+]i) using the Fluorescence Imaging Plate Reader (FLIPR)^TETRA®. All compounds were tested over a 12-point one-half-log concentration range. Compound stocks, 10 mM, were prepared in DMSO, and diluted serially across a 384-well plate using a Bravo BenchCel workstation (Agilent Technologies, Santa Clara, Calif.).
On the day of the experiment growth medium was removed, and the no-wash FLIPR® Calcium-4 dye (λEX=470-495 nm, λEM=515-575 nm) was added to each well using the Multidrop® dispenser. Cells were incubated for 90-120 minutes in the dark at 25° C. Test compounds were dissolved in DMSO, and plates were prepared using an Agilent Bravo workstation (Agilent Technologies Inc., Santa Clara, Calif.). Compounds were added to the cells 3 minutes prior to the addition of a pH 5.0 solution. Reagents were delivered at a rate of 40 μL/sec, and the final assay volume was 80 μL. Acidic pH solutions were prepared by titration of DPBS/MES with 1 N HCl. The intensity of the fluorescence was captured and digitally transferred to an interfaced PC.

Bounds are passed on as bounds.

T1 sequence (Q8NER1 whole entry): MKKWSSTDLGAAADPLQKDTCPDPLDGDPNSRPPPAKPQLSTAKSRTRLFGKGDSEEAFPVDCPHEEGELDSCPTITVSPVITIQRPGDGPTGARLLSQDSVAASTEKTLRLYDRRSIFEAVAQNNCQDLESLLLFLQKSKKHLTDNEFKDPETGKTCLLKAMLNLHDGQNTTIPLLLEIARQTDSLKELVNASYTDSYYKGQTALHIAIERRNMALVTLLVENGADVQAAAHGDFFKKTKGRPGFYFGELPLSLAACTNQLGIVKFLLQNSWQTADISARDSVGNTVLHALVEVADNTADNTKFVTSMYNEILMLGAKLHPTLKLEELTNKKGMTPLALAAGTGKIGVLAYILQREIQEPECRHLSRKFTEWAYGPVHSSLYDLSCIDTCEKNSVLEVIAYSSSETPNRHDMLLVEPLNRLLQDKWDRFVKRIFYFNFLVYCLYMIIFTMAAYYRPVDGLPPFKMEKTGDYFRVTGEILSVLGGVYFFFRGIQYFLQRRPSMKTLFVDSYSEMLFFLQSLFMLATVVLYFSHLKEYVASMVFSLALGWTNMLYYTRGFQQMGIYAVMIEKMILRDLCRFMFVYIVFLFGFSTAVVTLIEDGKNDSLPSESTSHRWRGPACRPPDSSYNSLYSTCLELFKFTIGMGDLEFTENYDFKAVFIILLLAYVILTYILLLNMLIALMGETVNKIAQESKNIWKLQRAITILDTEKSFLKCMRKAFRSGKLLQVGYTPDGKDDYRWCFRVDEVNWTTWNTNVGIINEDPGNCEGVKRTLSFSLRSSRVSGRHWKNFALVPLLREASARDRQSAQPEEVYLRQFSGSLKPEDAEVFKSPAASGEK

For `O=C(Nc1cccc2[nH]ncc12)N[C@@H]1CC[C@@H](c2cccc(F)c2)C1` [Example 68, 1-[(1R,3R)-3-(3-fluorophenyl)cyclopentyl]-3-(1H-indazol-4-yl)urea], the half-inhibitory concentration (IC50) in experiment [1] stood at 48 nM. In addition, the remaining activity at 37.5 µM in experiment [2] was 41%.

With `Cc1cc2c(NC(=O)N[C@H]3CC[C@H](c4nc(C)cs4)C3)c(F)ccc2cn1` [Example 134, 1-(6-fluoro-3-methylisoquinolin-5-yl)-3-[(1S,3S)-3-(4-methyl-1,3-thiazol-2-yl)cyclopentyl]urea], the concentration for half-maximal inhibition (IC50) in experiment [1] turned out to be 156 nM. The remaining activity at 37.5 µM in experiment [2] is 36%.

Regarding `O=C(Nc1cccc2[nH]ncc12)N[C@H]1CC[C@@H](c2ccccc2F)C1` [Example 67, 1-[(1S,3R)-3-(2-fluorophenyl)cyclopentyl]-3-(1H-indazol-4-yl)urea], the IC50 in experiment [1] worked out at 11 nM. For the same compound, the remaining activity at 37.5 µM in experiment [2] was found to be 18%.

As for `O=C(Nc1cccc2[nH]ncc12)N[C@H]1CC[C@@H](C2CCCCC2)C1` [Example 49, 1-((1S,3R)-3-cyclohexylcyclopentyl)-3-(1H-indazol-4-yl)urea], the IC50 in experiment [1] was found to be 66 nM. Moreover, the remaining activity at 37.5 µM in experiment [2] came out at 68%.

`Cc1cc2c(NC(=O)N[C@@H]3CC[C@H](c4nc(C)cs4)C3)c(F)ccc2cn1` [Example 132, 1-(6-fluoro-3-methylisoquinolin-5-yl)-3-[(1R,3S)-3-(4-methyl-1,3-thiazol-2-yl)cyclopentyl]urea]: in experiment [1], the IC50 amounted to 324 nM. Also, in experiment [2], the remaining activity at 37.5 µM turned out to be 40%.

Regarding `Cn1ncc2c(NC(=O)N[C@H]3CC[C@H](c4ccccc4)C3)cccc21` [Example 11, 1-(1-methyl-1H-indazol-4-yl)-3-[(1S,3S)-3-phenylcyclopentyl]urea], in experiment [1], the half-maximal inhibitory concentration (IC50) was determined as 84 nM. Moreover, in experiment [2], the remaining activity at 37.5 µM was 49%.

As to `COc1ccc(C2CCC(NC(=O)Nc3cccc4[nH]ncc34)C2)cc1` (stereo not shown) [Example 40, 1-(1H-indazol-4-yl)-3-[3-(4-methoxyphenyl)cyclopentyl]urea], the IC50 in experiment [1] was determined as 78 nM. Besides, in experiment [2], the remaining activity at 37.5 µM was 1%.

For `CN1C(=O)CCc2ccc(NC(=O)N[C@H]3CC[C@@H](c4ccccc4)C3)cc21` [Example 105, 1-(1-methyl-2-oxo-1,2,3,4-tetrahydroquinolin-7-yl)-3-[(1S,3R)-3-phenylcyclopentyl]urea], the 50% inhibitory concentration (IC50) in experiment [1] came to 956 nM. The remaining activity at 37.5 µM in experiment [2] was found to be 91%.

Regarding `O=C(Nc1cccc2c1C[C@@H](O)CC2)N[C@@H]1CC[C@H](c2ccccc2)C1` [Compound C, 1-[(7S)-7-hydroxy-5,6,7,8-tetrahydronaphthalen-1-yl]-3-[(1R,3S)-3-phenylcyclopentyl]urea, reference compound], in experiment [1], the IC50 amounted to 5 nM. Also, in experiment [2], the remaining activity at 37.5 µM is 2%.

`CN1C(=O)CCc2c(NC(=O)N[C@H]3CC[C@@H](c4ccccc4F)C3)cccc21` [Example 100, 1-[(1S,3R)-3-(2-fluorophenyl)cyclopentyl]-3-(1-methyl-2-oxo-1,2,3,4-tetrahydroquinolin-5-yl)urea]: the IC50 in experiment [1] came to 25 nM. The remaining activity at 37.5 µM in experiment [2] is 43%.

As for `CN1C(=O)CCc2ccc(NC(=O)N[C@@H]3CC[C@H](c4ccccc4)C3)cc21` [Example 77, 1-(1-methyl-2-oxo-1,2,3,4-tetrahydroquinolin-7-yl)-3-[(1R,3S)-3-phenylcyclopentyl]urea], in experiment [1], the IC50 is more than 37500 nM. Moreover, in experiment [2], the remaining activity at 37.5 µM came to 56%.

Regarding `C[C@H]1Oc2c(NC(=O)N[C@H]3CC[C@@H](c4ccccc4)C3)cccc2NC1=O` [Example 24, 1-[(2R)-2-methyl-3-oxo-3,4-dihydro-2H-1,4-benzoxazin-8-yl]-3-[(1S,3R)-3-phenylcyclopentyl]urea], the 50% inhibitory concentration (IC50) in experiment [1] is 85 nM. The remaining activity at 37.5 µM in experiment [2] worked out at 1%.

Consider `Cc1cc2c(NC(=O)N[C@H]3CC[C@@H](c4ccccc4F)C3)c(F)ccc2cn1` [Example 83, 1-(6-fluoro-3-methylisoquinolin-5-yl)-3-[(1S,3R)-3-(2-fluorophenyl)cyclopentyl]urea], for which, in experiment [1], the IC50 is 5.3 nM. For the same compound, the remaining activity at 37.5 µM in experiment [2] is 48%.

In the case of `O=C(Nc1ccc2c(c1)NC(=O)C(N1CCOCC1)C2)N[C@@H]1CC[C@H](c2ccccc2)C1` (stereo partly drawn) [Example 142, 1-[3-(morpholin-4-yl)-2-oxo-1,2,3,4-tetrahydroquinolin-7-yl]-3-[(1R,3S)-3-phenylcyclopentyl]urea], the IC50 in experiment [1] was found to be 116 nM. In experiment [2], the remaining activity at 37.5 µM is 66%.

For the compound `O=C(Nc1cccc2[nH]ncc12)N[C@H]1CC[C@@H](c2cccc(F)c2)C1` [Example 69, 1-[(1S,3R)-3-(3-fluorophenyl)cyclopentyl]-3-(1H-indazol-4-yl)urea], the IC50 in experiment [1] amounted to 12 nM. Further, the remaining activity at 37.5 µM in experiment [2] worked out at 2%.

On to `C[C@H]1Oc2c(NC(=O)N[C@@H]3CC[C@@H](c4ccccc4)C3)cccc2NC1=O` [Example 17, 1-[(2R)-2-methyl-3-oxo-3,4-dihydro-2H-1,4-benzoxazin-8-yl]-3-[(1R,3R)-3-phenylcyclopentyl]urea], for which, in experiment [1], the half-maximal inhibitory concentration (IC50) turned out to be 373 nM. Moreover, the remaining activity at 37.5 µM in experiment [2] turned out to be 25%.

With `CC(C)(C)c1ccc(C2CCCC(NC(=O)Nc3cccc4[nH]ncc34)C2)cc1` (stereo not shown) [Example 29, 1-[3-(4-tert-butylphenyl)cyclohexyl]-3-(1H-indazol-4-yl)urea], in experiment [1], the concentration for half-maximal inhibition (IC50) came out at 1730 nM. Further, in experiment [2], the remaining activity at 37.5 µM came out at 68%.

`O=C(Nc1cccc2[nH]ncc12)N[C@H]1C[C@@H](c2ccccc2)C1` [Example 56, 1-(1H-indazol-4-yl)-3-(cis-3-phenylcyclobutyl)urea]: the IC50 in experiment [1] amounted to 14 nM. Moreover, in experiment [2], the remaining activity at 37.5 µM turned out to be 10%.

With `O=C(Nc1cccc2[nH]ncc12)N[C@H]1CCC[C@H](c2ccc(C(F)(F)F)cc2)C1` [Example 32, 1-(1H-indazol-4-yl)-3-{(1S,3S)-3-[4-(trifluoromethyl)phenyl]cyclohexyl}urea], in experiment [1], the IC50 came to 795 nM. Also, in experiment [2], the remaining activity at 37.5 µM is 32%.

Regarding `CSc1ccc([C@H]2CCC(NC(=O)Nc3cccc4[nH]ncc34)C2)cc1` (stereo partly drawn) [Example 46, 1-(1H-indazol-4-yl)-3-{(3S)-3-[4-(methylsulfanyl)phenyl]cyclopentyl}urea], the IC50 in experiment [1] is 87 nM. Moreover, in experiment [2], the remaining activity at 37.5 µM came to 7%.
